The source of these data is US11273165B2, “Applications for estradiol in preparing anti-small cell lung cancer and/or ovarian cancer and/or osteosarcoma products” (SHANGHAI JIAO TONG UNIVERSITY, priority 2015, dated 2022).

Holding throughout (assay type): cell-based
For assay [1], the system named is NCI-H82 small-cell lung cancer cells. Kind of assay: CellTiter-Glo luminescent cell viability assay, NCI-H82 small-cell lung cancer cells. The note with it: Homo sapiens, 72 hours. How it is done: (§1) In example 1, CELLTITER-GLO was used to test estradiol against small-cell lung cancer and/or ovarian cancer and/or osteosarcoma epithelial cell carcinoma 1. Cell plating • a) The complete medium required for each cell was prepared. • b) Before beginning the experiment, the name of the drug screened for the cells marked on the 100 mm petri dish was confirmed as well as information such as the passage time and number of passages to ensure the experiment was error-free. • c) Refer to steps d) through i) for procedures for adherent cells; refer to steps j) through l) for procedures for suspension cells. • d) When using aseptic technique, a vacuum pump was used to draw the cell culture medium. • e) 2 ml of a sterile PBS solution was used to rinse the cell surface, and a vacuum pump was used to aspirate the PBS waste. • f) A 1 ml 0.25% (w/v) Trypsin-0.038% (w/v) EDTA solution was gently added to the petri dish for cell digestion, and after gently mixing several times, the solution covered the cell surfaces. […]

Assay [2] concerns SNU-475 human hepatoma cells. Nature of the assay: CellTiter-Glo luminescent cell viability assay, SNU-475 human hepatoma cells. The settings on record: 72 hours.
The subject of the next assay is U2OS osteosarcoma cells. Kind of assay: CellTiter-Glo luminescent cell viability assay, U2OS osteosarcoma cells. The note with it: Homo sapiens, 72 hours. The procedure: as §1
The test system of assay [3] is SKOV-3 ovarian cancer cells. Kind of assay: CellTiter-Glo luminescent cell viability assay, SKOV-3 ovarian cancer cells. The settings on record: Homo sapiens, 72 hours. The procedure:
as §1

For assay [4], the system named is NCI-H810 human hepatoma cells. Nature of the assay: CellTiter-Glo luminescent cell viability assay, NCI-H810 human hepatoma cells. The note with it: 72 hours. How it is done:
as §1

As to `C[C@]12CC[C@@H]3c4ccc(O)cc4CC[C@H]3[C@@H]1CC[C@@H]2O` [estradiol], the IC50 in assay [1] was 16.3 µM; in assay [2], ≥ 100 µM; in the assay on U2OS osteosarcoma cells, 32.7 µM; in assay [3] (SK-OV-3, SKOV-3 ovarian cancer cells) it was 3.07 µM; in assay [4] it was ≥ 100 µM. Also, the EC50 in assay [1] (read-out: EC50 (estradiol sensitivity to small-cell lung cancer, FIG. 3)) was 15.3 µM; in the assay on U2OS osteosarcoma cells (read-out: EC50 (estradiol sensitivity to osteosarcoma, FIG. 4)) it was 28.8 µM; in assay [3] (SK-OV-3, ovarian cancer cells, read-out: EC50 (estradiol sensitivity to ovarian cancer, FIG. 2)), 3.03 µM.
